From patent US6660774B2, “Use of (+)-tramadol, O-demethyltramadol or (+)-O-demethyl-tramadol, O-desmethyl-N-mono-desmethyl-tramadol or (+)- O-desmethyl-N-mono-desmethyltramadol” (Gruenethal GmbH, priority 1999, dated 2003)

Tested on: virgin, female Sprague-Dawley rats (bladder function)
Assay: Cystometric testing on conscious, virgin rats
Format: in vivo, rat
[1] = 5.0 mg/kg i.v., Diff.: change relative to the initial value
[2] = 5.0 mg/kg i.v., h: after administration, at maximum action
[3] = 5.0 mg/kg i.v., v: before administration (initial value)
[4] = 0.1 mg/kg i.v., Diff.: change relative to the initial value
[5] = 0.1 mg/kg i.v., h: after administration, at maximum action
[6] = 0.1 mg/kg i.v., v: before administration (initial value)
[7] = 0.3 mg/kg i.v., Diff.: change relative to the initial value
[8] = 0.3 mg/kg i.v., h: after administration, at maximum action
[9] = 0.3 mg/kg i.v., v: before administration (initial value)
[10] = 0.5 mg/kg i.v., Diff.: change relative to the initial value
[11] = 0.5 mg/kg i.v., h: after administration, at maximum action
[12] = 0.5 mg/kg i.v., v: before administration (initial value)

## COc1cccc(C2(O)CCCCC2CN(C)C)c1 (single isomer, unassigned; (-)) [(−)-Tramadol, (−)-tramadol, reference compound]
[1]
  Basal pressure: Diff.: +2%
  Bladder capacity: Diff.: −8%
  Micturition pressure: Diff.: −15%
  Micturition volume: Diff.: −6%
  Residual volume: Diff.: −17%
  Threshold pressure: Diff.: −3%
[2]
  Basal pressure: h: 4.20 ± 0.30 cm H2O
  Bladder capacity: h: 1.10 ± 0.09 ml
  Micturition pressure: h: 59 ± 3 cm H2O
  Micturition volume: h: 1.01 ± 0.09 ml
  Residual volume: h: 0.10 ± 0.02 ml
  Threshold pressure: h: 7.10 ± 0.44 cm H2O
[3]
  Basal pressure: v: 4.12 ± 0.40 cm H2O
  Bladder capacity: v: 1.19 ± 0.13 ml
  Micturition pressure: v: 69 ± 4 cm H2O
  Micturition volume: v: 1.07 ± 0.13 ml
  Residual volume: v: 0.12 ± 0.01 ml
  Threshold pressure: v: 7.32 ± 2.21 cm H2O

## COc1cccc([C@@]2(O)CCCC[C@@H]2CN(C)C)c1 [(+)-Tramadol, (+)-tramadol]
[4]
  Basal pressure: Diff.: −4%
  Bladder capacity: Diff.: +18%
  Inter-contraction interval: Diff.: +33%
  Micturition pressure: Diff.: −20%
  Micturition volume: Diff.: +7%
  Residual volume: Diff.: 44%
  Threshold pressure: Diff.: +48%
[5]
  Basal pressure: h: 3.85 ± 0.46 cm H2O
  Bladder capacity: h: 1.07 ± 0.13 ml
  Inter-contraction interval: h: 7.13 ± 0.85 min
  Micturition pressure: h: 55 ± 8 cm H2O
  Micturition volume: h: 0.80 ± 0.09 ml
  Residual volume: h: 0.23 ± 0.07 ml
  Threshold pressure: h: 11.63 ± 1.05 cm H2O
[6]
  Basal pressure: v: 4.01 ± 0.57 cm H2O
  Bladder capacity: v: 0.91 ± 0.11 ml
  Inter-contraction interval: v: 5.35 ± 0.63 min
  Micturition pressure: v: 69 ± 11 cm H2O
  Micturition volume: v: 0.75 ± 0.12 ml
  Residual volume: v: 0.16 ± 0.01 ml
  Threshold pressure: v: 7.87 ± 1.51 cm H2O
[7]
  Basal pressure: Diff.: +10%
  Bladder capacity: Diff.: +39%
  Inter-contraction interval: Diff.: +19%
  Micturition pressure: Diff.: −15%
  Micturition volume: Diff.: +13%
  Residual volume: Diff.: +167%
  Threshold pressure: Diff.: +95%
[8]
  Basal pressure: h: 4.95 ± 0.19 cm H2O
  Bladder capacity: h: 1.38 ± 0.14 ml
  Inter-contraction interval: h: 7.21 ± 0.72 min
  Micturition pressure: h: 60 ± 5 cm H2O
  Micturition volume: h: 0.97 ± 0.13 ml
  Residual volume: h: 0.40 ± 0.04 ml
  Threshold pressure: h: 16.01 ± 1.63 cm H2O
[9]
  Basal pressure: v: 4.50 ± 0.29 cm H2O
  Bladder capacity: v: 0.99 ± 0.08 ml
  Inter-contraction interval: v: 6.06 ± 0.49 min
  Micturition pressure: v: 71 ± 4 cm H2O
  Micturition volume: v: 0.86 ± 0.07 ml
  Residual volume: v: 0.15 ± 0.01 ml
  Threshold pressure: v: 8.21 ± 0.42 cm H2O
[10]
  Basal pressure: Diff.: +13%
  Bladder capacity: Diff.: +18%
  Inter-contraction interval: Diff.: +21%
  Micturition pressure: Diff.: −22%
  Micturition volume: Diff.: +22%
  Residual volume: Diff.: −14%
  Threshold pressure: Diff.: +91%
[11]
  Basal pressure: h: 4.70 ± 1.14 cm H2O
  Bladder capacity: h: 1.43 ± 0.11 ml
  Micturition pressure: h: 57 ± 10 cm H2O
  Micturition volume: h: 1.31 ± 0.12 ml
  Residual volume: h: 0.12 ± 0.002 ml
  Threshold pressure: h: 15.0 ± 2.58 cm H2O
[12]
  Basal pressure: v: 4.16 ± 0.62 cm H2O
  Bladder capacity: v: 1.21 ± 0.06 ml
  Micturition pressure: v: 73 ± 12 cm H2O
  Micturition volume: v: 1.07 ± 0.06 ml
  Residual volume: v: 0.14 ± 0.03 ml
  Threshold pressure: v: 7.85 ± 1.04 cm H2O
5 mg/kg i.v.
  effect on bladder parameters (in words): has an effect
[1]
  Basal pressure: Diff.: +53%
  Bladder capacity: Diff.: −2%
  Inter-contraction interval: Diff.: +7%
  Micturition pressure: Diff.: −15%
  Micturition volume: Diff.: +46%
  Residual volume: Diff.: −95%
  Threshold pressure: Diff.: +140%
[2]
  Basal pressure: h: 6.46 ± 1.13 cm H2O
  Bladder capacity: h: 0.90 ± 0.09 ml
  Micturition pressure: h: 51 ± 7 cm H2O
  Micturition volume: h: 1.18 ± 0.12 ml
  Residual volume: h: 0.006 ± 0.003 ml
  Threshold pressure: h: 19.20 ± 3.02 cm H2O
[3]
  Basal pressure: v: 4.23 ± 0.35 cm H2O
  Bladder capacity: v: 0.92 ± 0.08 ml
  Micturition pressure: v: 60 ± 4 cm H2O
  Micturition volume: v: 0.81 ± 0.07 ml
  Residual volume: v: 0.11 ± 0.02 ml
  Threshold pressure: v: 8.0 ± 1.10 cm H2O
rat, in vivo
  bladder capacity (in words): distinct increase
